Data on 25 molecules can be found in patent US20240417405A1, “Substituted Spiro Derivatives” (Janssen Pharmaceutica NV, priority 2021, published 2024).

For test [1], the target named is T1, menin/MLL (terbium chelate-labeled menin, FITC-MBM1 peptide) (Homo sapiens, UniProt O00255, T541A).
T1 construct: Menin (a.a 1-610-6xhis tag)
T1 sequence (O00255 with tags, fused parts or gaps T541A): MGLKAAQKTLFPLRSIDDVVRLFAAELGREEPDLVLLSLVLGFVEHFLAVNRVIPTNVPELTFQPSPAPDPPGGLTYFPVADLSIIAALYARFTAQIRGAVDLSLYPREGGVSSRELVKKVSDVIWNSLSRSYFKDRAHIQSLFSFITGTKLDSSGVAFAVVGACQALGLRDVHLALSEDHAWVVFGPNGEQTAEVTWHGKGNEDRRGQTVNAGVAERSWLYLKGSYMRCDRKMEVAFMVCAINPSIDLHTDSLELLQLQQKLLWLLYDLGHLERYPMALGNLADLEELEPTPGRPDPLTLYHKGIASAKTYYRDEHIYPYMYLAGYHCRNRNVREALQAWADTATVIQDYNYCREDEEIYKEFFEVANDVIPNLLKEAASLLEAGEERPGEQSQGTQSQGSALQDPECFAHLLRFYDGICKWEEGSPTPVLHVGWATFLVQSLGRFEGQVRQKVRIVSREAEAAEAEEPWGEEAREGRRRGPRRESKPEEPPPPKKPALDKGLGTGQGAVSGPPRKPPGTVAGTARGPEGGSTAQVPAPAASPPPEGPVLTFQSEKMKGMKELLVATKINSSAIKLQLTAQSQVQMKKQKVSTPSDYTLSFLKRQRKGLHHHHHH
Briefly: Menin/MLL homogenous time-resolved fluorescence (HTRF) assay. Conditions: 30 min incubation. The test is classed as binding. In short, it runs like this: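 Displacement of FITC-labeled MBM1 peptide (75 nM) from terbium-labeled menin 1-610 (200 pM) measured by HTRF emission ratio. Eleven four-fold dilutions, typically from 10 μM, normalised to saturating-competitor and no-compound controls; IC50 from four-parameter logistic.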
A general note: Time-resolved FRET reads energy transfer from a long-lived donor to a nearby acceptor.

The subject of the next test is MOLM14 cells. Briefly: Proliferation assay, spheroid-like growth, MOLM14 (MLL-AF9 rearranged). Conditions: Homo sapiens, MOLM-14, 192 h, 8 days, confluence as measure of spheroid size, read-out: spheroid assay_OneTime MOLM14 IC50. The test is classed as cell-based, human. In short, it runs like this:
(§1)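 Read-out is spheroid confluence from live-cell images taken on day 8, scaled between DMSO-treated wells (0% cytotoxicity) and a low control such as 1 μM staurosporin. Cells were exposed to compound for 8 days in low-attachment plates; KO-52 served as the MLL-wildtype counterscreen.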

Another test relates to KO-52 cells. Briefly: Proliferation assay, spheroid-like growth, KO-52 (MLL wildtype control cell line). The test is classed as cell-based, human. The settings on record: Homo sapiens, 192 h, KO-52 control cells, 8 days, confluence as measure of spheroid size; read-out: spheroid assay_OneTime KO-52 IC50. The procedure, abridged:
as §1

Regarding `CC(C)C(C1CC(C)(O)C1)N1CC2(CCN(c3ncnnc3Oc3ccc(F)cc3-c3cncnc3C3CC3)C2)C1` (single isomer, unassigned) [Compound 159], the IC50 was 0.3 nM in test [1], 110 nM in the test with MOLM14 cells and 1.1 µM in the test with KO-52 cells.

Consider `CC(C)[C@@H](C1CC(C)(O)C1)N1CC2(CCN(c3ncnnc3Oc3ccc(F)cc3-c3cncnc3C3CC3)C2)C1` (single isomer, unassigned) [Compound 160], for which the IC50 in test [1] is 23.2 nM; with MOLM14 cells, over 3750 nM; in the test with KO-52 cells, over 15 µM.

Consider `CC(C)[C@H]([C@H]1C[C@@H](NC2CCOCC2)C1)N1CC2(CCN(c3ncnnc3Oc3ccc(F)cc3-c3cncnc3C3CC3)C2)C1` (single isomer, unassigned) [Compound 163], for which the IC50 in test [1] is 0.1 nM; in the test with MOLM14 cells it was 11 nM; in the test on KO-52 cells, 4.37 µM.

Regarding `CC(C)[C@H]([C@H]1C[C@@H](N(C)C2CCOCC2)C1)N1CC2(CCN(c3ncnnc3Oc3ccc(F)cc3-c3cncnc3C3CC3)C2)C1` (single isomer, unassigned) [Compound 164], the results for the half-inhibitory concentration (IC50) (in test [1]; in the test on MOLM14 cells; with KO-52 cells) were 0.1 nM, 10 nM and 1.41 µM, respectively.

Consider `CC(C)[C@@H]([C@H]1C[C@@H](NC2CCOCC2)C1)N1CC2(CCN(c3ncnnc3Oc3ccc(F)cc3-c3cncnc3C3CC3)C2)C1` (single isomer, unassigned) [Compound 165], for which the half-inhibitory concentration (IC50) in test [1] is 0.8 nM; in the test on MOLM14 cells, 200 nM; in the test with KO-52 cells, 9.91 µM.

With `CC(=O)N1CC2(C1)CN([C@H]1C[C@@H]([C@@H](C(C)C)N3CC4(CCN(c5ncnnc5Oc5ccc(F)cc5-c5cncnc5C5CC5)C4)C3)C1)C2` (single isomer, unassigned) [Compound 170], the IC50 in test [1] was 0.1 nM; with MOLM14 cells, 5 nM; in the test on KO-52 cells, 8.68 µM.

With `CC(=O)N1CC2(C1)CN([C@H]1C[C@H]([C@@H](C(C)C)N3CC4(CCN(c5ncnnc5Oc5ccc(F)cc5-c5cncnc5C5CC5)C4)C3)C1)C2` (single isomer, unassigned) [Compound 171], the half-maximal inhibitory concentration (IC50) in test [1] is 0.1 nM; in the test on MOLM14 cells, 31 nM; in the test with KO-52 cells, over 15 µM.

With `CC(=O)N1CCC12CN([C@H]1C[C@@H]([C@@H](C(C)C)N3CC4(CCN(c5ncnnc5Oc5ccc(F)cc5-c5cncnc5C5CC5)C4)C3)C1)C2` (single isomer, unassigned) [Compound 172], the IC50 turned out to be 0.1 nM in test [1], 22 nM with MOLM14 cells and 10.1 µM in the test with KO-52 cells.

For the molecule `CC(=O)N1CCC12CN([C@H]1C[C@H]([C@@H](C(C)C)N3CC4(CCN(c5ncnnc5Oc5ccc(F)cc5-c5cncnc5C5CC5)C4)C3)C1)C2` (single isomer, unassigned) [Compound 173], the half-inhibitory concentration (IC50) in test [1] is 0.2 nM; with MOLM14 cells, 150 nM; in the test on KO-52 cells, over 15 µM.

Turning to `CC(=O)N1CCCC12CN([C@H]1C[C@@H]([C@@H](C(C)C)N3CC4(CCN(c5ncnnc5Oc5ccc(F)cc5-c5cncnc5C5CC5)C4)C3)C1)C2` (single isomer, unassigned) [Compound 174], the half-maximal inhibitory concentration (IC50) came to 0.1 nM in test [1], 9 nM in the test with MOLM14 cells and 7.4 µM in the test on KO-52 cells.

As to `CC(=O)N1CCCC12CN([C@H]1C[C@H]([C@@H](C(C)C)N3CC4(CCN(c5ncnnc5Oc5ccc(F)cc5-c5cncnc5C5CC5)C4)C3)C1)C2` (single isomer, unassigned) [Compound 175], the results for the 50% inhibitory concentration (IC50) (in test [1]; with MOLM14 cells; with KO-52 cells) were 0.1 nM, 110 nM and over 15 µM, respectively.

Regarding `CC(=O)N[C@H]1C[C@@H]([C@@H](C(C)C)N2CC3(CCN(c4ncnnc4Oc4ccc(F)cc4-c4nccnc4C4CC4)C3)C2)C1` (single isomer, unassigned) [Compound 177], the values for the IC50 (in test [1]; in the test on MOLM14 cells; in the test with KO-52 cells) were 0.2 nM, 37 nM and 8.87 µM, respectively.

With `CC(=O)N[C@H]1C[C@@H]([C@H](C(C)C)N2CC3(CCN(c4ncnnc4Oc4ccc(F)cc4-c4nccnc4C4CC4)C3)C2)C1` (single isomer, unassigned) [Compound 178], the IC50 is 108 nM in test [1], over 940 nM in the test with MOLM14 cells and over 15 µM in the test on KO-52 cells.

As to `CC(=O)N[C@H]1C[C@@H]([C@@H](C(C)C)N2CC3(CCN(c4ncnnc4Oc4ccc(F)cc4-c4ncncc4C4CC4)C3)C2)C1` (single isomer, unassigned) [Compound 180], the IC50 came to 0.3 nM in test [1], 62 nM in the test on MOLM14 cells and 10.1 µM in the test on KO-52 cells.

Turning to `CC(=O)N[C@H]1C[C@@H]([C@H](C(C)C)N2CC3(CCN(c4ncnnc4Oc4ccc(F)cc4-c4ncncc4C4CC4)C3)C2)C1` (single isomer, unassigned) [Compound 181], the IC50 in test [1] was 96.9 nM; with MOLM14 cells it was over 940 nM; in the test with KO-52 cells, over 15 µM.

For the molecule `CC(C)[C@H]([C@H]1C[C@@H](NC(=O)C2CC2)C1)N1CC2(CCN(c3ncnnc3Oc3ccc(F)cc3-c3cnncc3C3CC3)C2)C1` (single isomer, unassigned) [Compound 185], the figures for the IC50 (in test [1]; in the test with MOLM14 cells; in the test with KO-52 cells) were 0.1 nM, 6 nM and 6.04 µM, respectively.

Consider `CC(C)[C@@H]([C@H]1C[C@@H](NC(=O)C2CC2)C1)N1CC2(CCN(c3ncnnc3Oc3ccc(F)cc3-c3cnncc3C3CC3)C2)C1` (single isomer, unassigned) [Compound 186], for which the half-inhibitory concentration (IC50) in test [1] is 5.4 nM; with MOLM14 cells, over 940 nM; in the test with KO-52 cells, 7.05 µM.

As to `CC(C)[C@H]([C@H]1C[C@@H](N2CCC[C@H](F)C2)C1)N1CC2(CCN(c3ncnnc3Oc3ccc(F)cc3-c3cncnc3C3CC3)C2)C1` (single isomer, unassigned) [Compound 200], the values for the half-inhibitory concentration (IC50) (in test [1]; in the test with MOLM14 cells; in the test on KO-52 cells) were 0.1 nM, 16 nM and 9.71 µM, respectively.

Turning to `CC1CN([C@H]2C[C@@H]([C@@H](C(C)C)N3CC4(CCN(c5ncnnc5Oc5ccc(F)cc5-c5cncnc5C5CC5)C4)C3)C2)CCC1O` (single isomer, unassigned) [Compound 201], the half-inhibitory concentration (IC50) is 0.2 nM in test [1], 6 nM in the test on MOLM14 cells and 4.24 µM with KO-52 cells.

`CC(C)[C@H]([C@H]1C[C@H](N2CCC3(C2)CS(=O)(=O)C3)C1)N1CC2(CCN(c3ncnnc3Oc3ccc(F)cc3-c3cncnc3C3CC3)C2)C1` (single isomer, unassigned) [Compound 204]: the IC50 in test [1] is 0.3 nM; with MOLM14 cells, 190 nM; with KO-52 cells, over 15 µM.

In the case of `CC(C)[C@H]([C@H]1C[C@@H](N2CCC3(C2)CS(=O)(=O)C3)C1)N1CC2(CCN(c3ncnnc3Oc3ccc(F)cc3-c3cncnc3C3CC3)C2)C1` (single isomer, unassigned) [Compound 205], the IC50 in test [1] came to 0.1 nM; in the test with MOLM14 cells, 39 nM; in the test on KO-52 cells, 8.47 µM.

Turning to `CC(C)[C@H]([C@H]1C[C@@H](N2CCC[C@@H](F)C2)C1)N1CC2(CCN(c3ncnnc3Oc3ccc(F)cc3-c3cncnc3C3CC3)C2)C1` (single isomer, unassigned) [Compound 206], the results for the IC50 (in test [1]; with MOLM14 cells; with KO-52 cells) were 0.2 nM, 9 nM and 7.95 µM, respectively.

For `CC(C)[C@H]([C@H]1C[C@@H](N2CCOCC2)C1)N1CC2(CCN(c3ncnnc3Oc3ccc(F)cc3-c3cncnc3C3CC3)C2)C1` (single isomer, unassigned) [Compound 208], the results for the IC50 (in test [1]; in the test on MOLM14 cells; in the test with KO-52 cells) were 0.3 nM, 29 nM and 9.13 µM, respectively.

For `CC(C)[C@H]([C@H]1C[C@@H](N2CCC(S(=O)(=O)C(C)C)CC2)C1)N1CC2(CCN(c3ncnnc3Oc3ccc(F)cc3-c3cncnc3C3CC3)C2)C1` (single isomer, unassigned) [Compound 209], the IC50 in test [1] is 0.3 nM; with MOLM14 cells, 16 nM; with KO-52 cells it was 5.26 µM.

For the molecule `CO[C@@H]1CCN([C@H]2C[C@@H]([C@@H](C(C)C)N3CC4(CCN(c5ncnnc5Oc5ccc(F)cc5-c5cncnc5C5CC5)C4)C3)C2)C1` (single isomer, unassigned) [Compound 211], the IC50 was 0.1 nM in test [1], 3 nM with MOLM14 cells and over 15 µM with KO-52 cells.

As usually defined, the IC50 is the concentration that gives 50% inhibition.
